# ChEMBL document CHEMBL1275550, “In vitro activity of doripenem, a carbapenem for the treatment of challenging infections caused by gram-negative bacteria, against recent clinical isolates from the United States” (2008)
# Columns and labels:
# Assay type in all cases: functional
# [1] = system: Serratia marcescens; experiment: Antimicrobial activity against Ceftazidime non-susceptible Serratia marcescens assessed as resistant isolate by broth microdilution method
# [2] = system: Enterobacteriaceae; experiment: Antimicrobial activity against Ceftazidime non-susceptible Enterobacteriaceae assessed as intermediate isolate by broth microdilution method in presence of tazobactam
# [3] = system: Enterobacteriaceae; experiment: Antimicrobial activity against Ceftazidime non-susceptible Enterobacteriaceae assessed as resistant isolate by broth microdilution method in presence of tazobactam
# [4] = system: Escherichia coli; experiment: Antimicrobial activity against ESBL producing Escherichia coli by broth microdilution method in presence of Tazobactam
# [5] = system: Pseudomonas aeruginosa; experiment: Antimicrobial activity against Pseudomonas aeruginosa isolated from ICU patient assessed as intermediate isolate by broth microdilution method
# [6] = system: Proteus mirabilis; experiment: Antimicrobial activity against Non-ESBL Proteus mirabilis by broth microdilution method in presence of Tazobactam
# [7] = system: Enterobacter cloacae; experiment: Antimicrobial activity against Enterobacter cloacae with nonderepressed AmpC beta-lactamsae by broth microdilution method in presence of Tazobactam
# [8] = system: Enterobacter cloacae; experiment: Antimicrobial activity against Enterobacter cloacae with derepressed AmpC beta-lactamsae assessed as intermediate isolate by broth microdilution method in presence of Tazobactam
# [9] = system: Citrobacter; experiment: Antimicrobial activity against Citrobacter with nonderepressed AmpC beta-lactamsae by broth microdilution method in presence of Tazobactam
# [10] = system: Citrobacter; experiment: Antimicrobial activity against Citrobacter with nonderepressed AmpC beta-lactamsae assessed as susceptible isolate by broth microdilution method in presence of Tazobactam
# [11] = system: Pseudomonas aeruginosa; experiment: Antimicrobial activity against ceftazidime susceptible Pseudomonas aeruginosa by broth microdilution method in presence of Tazobactam
# [12] = system: Pseudomonas aeruginosa; experiment: Antimicrobial activity against ceftazidime susceptible Pseudomonas aeruginosa assessed as resistant isolate by broth microdilution method in presence of Tazobactam
# [13] = system: Pseudomonas aeruginosa; experiment: Antimicrobial activity against imipenem susceptible Pseudomonas aeruginosa assessed as resistant isolate by broth microdilution method in presence of Tazobactam
Structure (SMILES),Activity [1],Activity [2],Activity [3],MIC50 [4],MIC90 [4],MIC50 [5],MIC90 [5],MIC50 [6],MIC90 [6],MIC50 [7],MIC90 [7],Activity [8],MIC50 [9],MIC90 [9],Activity [10],MIC50 [11],MIC90 [11],Activity [12],Activity [13]
CC(C)(O/N=C(\C(=O)N[C@@H]1C(=O)N2C(C(=O)[O-])=C(C[n+]3ccccc3)CS[C@H]12)c1csc(N)n1)C(=O)O [CEFTAZIDIME],100%,–,–,–,–,–,–,–,–,–,–,–,–,–,–,–,–,–,–
CCN1CCN(C(=O)N[C@@H](C(=O)N[C@@H]2C(=O)N3[C@@H]2SC(C)(C)[C@@H]3C(=O)O)c2ccccc2)C(=O)C1=O [PIPERACILLIN],–,20.6%,63.8%,16 µg/mL,> 128 µg/mL,16 µg/mL,> 128 µg/mL,0.5 µg/mL,2 µg/mL,4 µg/mL,16 µg/mL,11.7%,4 µg/mL,16 µg/mL,93.7%,16 µg/mL,64 µg/mL,3.7%,9.4%
